# Assay: Human HepG2 cell viability assay in 384 well format
# Type: toxicity, cell-based
# Parameters: dose 125 nL, time 70.5 hour; cytotoxicity at 70.5 h: concentration not given beside the values
# Conditions: HepG2 cells, read-out: Inhibition
row,Structure (SMILES),cytotoxicity at 70.5 h
1,Cc1nc(C2(O)CCCNCC2)sc1CCOc1ccc(Cl)cc1 (stereo not drawn),31.6%
2,N#CC1CCN(C(=O)NCCc2ccc(Cl)s2)CC1,-3.5%
3,CCS(=O)(=O)N1CC(=O)N(CCOc2ccccc2)CC(O)C1 (stereo not drawn),-2.23%
4,CCc1noc(CN2CCN(C(=O)C3CC3)CC2)n1,-9.23%
5,CN1C(=O)CC[C@]12CC[C@@H](NC(=O)NCc1cccnc1)CC2,-4%
6,O=C(Nc1nncs1)c1ccc(-n2cnnn2)cc1,1.5%
7,CN1CCN(Cc2cccnc2)C2(CCN(c3ncccn3)C2)C1=O (stereo not drawn),-5.32%
8,Cc1cc(CN2CCOC(CN(C)C)C2)no1 (stereo not drawn),9.18%
9,CC1=Nc2c(c(=O)[nH]n2C(C)C)C(c2ccc3c(c2)OCCO3)S1 (stereo not drawn),7.71%
10,Cn1cccc1C(=O)NCc1cnc2n1CCN(c1ccccn1)C2,-3.68%
11,O=C(CN1CCc2ccccc2C1)NCc1cc2n(n1)CCCNC2,-6.65%
12,Cc1cccc(-c2nc(C)nn2CN2CCN(c3ncccn3)CC2)c1,-5.76%
13,CO[C@@H]1CC[C@H]2[C@H]1OCCN2Cc1ccccn1,18.3%
14,Cn1nccc1CN1CCOC(c2ccc(-c3cncnc3)cn2)C1 (stereo not drawn),-6.28%
15,COCc1cccc(C(=O)N2C[C@H]3CC[C@@H]2CN(Cc2cscn2)C3)n1,34.5%
16,Cc1cnn(CC2CCCN2Cc2nc3ccccc3c(=O)[nH]2)c1 (stereo not drawn),-7.22%
17,O=C(NCc1cccnc1)N1CCSCC1CCO (stereo not drawn),13.2%
18,CCC(C)(C)NC(=O)CN(Cc1cccc(O)c1)C1CCC(O)CC1 (stereo not drawn),-4.94%
19,COC(C)(C)C(=O)N[C@H]1CN(c2nccnc2N(C)C)C[C@@H]1C(C)C,-5.98%
20,CC(C)C(=O)N1CCCC2(CC(C(=O)NCc3cccnc3)=NO2)C1 (stereo not drawn),-2.66%
21,O=C(c1cccc2cc[nH]c12)N1CCC2(CCOC2)C1 (stereo not drawn),1.91%
22,Cc1ccn(CCNc2ncnc3c2CCN(c2cnccn2)CC3)n1,2.31%
23,CC(c1cccc(S(N)(=O)=O)c1)N(C)CCCOc1ccccc1 (stereo not drawn),-4.57%

row,Structure (SMILES),cytotoxicity at 70.5 h
1,CC(C)(C)c1nnnn1CC(=O)N(CCC#N)c1ccccc1,-9.07%
2,Cc1nn(C)c(Cl)c1CNCCOc1ccc2c(c1)OCO2,7.39%
3,O=C(CN1CCOCC1)N(c1ccccc1)c1ccccc1,-11.2%
4,O=C(NCCn1nc(C2CCNC2)c2cccnc21)C1CCC1 (stereo not drawn),2.22%
5,CCC(=O)Nc1nnc(CCOc2cccc(OC)c2)s1,6.47%
6,CNc1cncc(C2CCCN2Cc2ccccn2)n1 (stereo not drawn),-6.51%
7,O=C1NC[C@H]2CN(Cc3ccnc4ccccc34)CCN12,-6.05%
8,Cc1ccccc1C(=O)NCc1ccc(N2CCNC(=O)C2)c(F)c1,-8%
9,CC(=O)N[C@@H]1CN(C(=O)c2csc(C(C)C)n2)C[C@H]1C(C)C,-7.11%
10,CCCN1C(=O)c2ccccc2C1OC (stereo not drawn),-6.48%
11,Cn1nnnc1SCCNC(=O)CC1CCc2ccccc21 (stereo not drawn),-1.31%
12,Cc1cc(=O)[nH]c(-c2cccc(CN3CCCN4CCCC4C3)c2)n1 (stereo not drawn),-5.83%
13,O=C(O)CCC(=O)Nc1nn(Cc2ccc(F)cc2)cc1Cl,27.9%
14,Cc1cc(C(=O)N2CC[C@](C)(O)[C@H](C)C2)c(C)n1C,18.2%
15,COCC1CN(Cc2cccnc2OC)Cc2cnn(C)c21 (stereo not drawn),6.07%
16,Cn1ccc2cc(C(=O)Nc3nc[nH]n3)ccc21,15.8%
17,COc1ccc2c(=O)n(CC3CCCCN3C)ccc2c1OC (stereo not drawn),-4.5%
18,COc1cc(OC)cc(N2CCC(NCc3occc3C)C2=O)c1 (stereo not drawn),31%
19,CC(=O)N1CCc2[nH]cnc2C12CCN(C(=O)Cc1ccccn1)CC2,-14.9%
20,CNC(=O)C1CN(C(=O)c2ccccc2)Cc2cn(C)nc21 (stereo not drawn),26.9%
21,COc1ccccc1C1CNC(=O)c2nc(-c3cnn(C)c3)[nH]c2C1 (stereo not drawn),-7.47%
22,CC(=O)N1N=C(c2ccccc2)OC1C(=O)NCCc1ccc(O)cc1 (stereo not drawn),-1.25%
23,O=C(Cc1ccccc1Cl)Nc1ccn(CCN2CCOCC2)n1,-12.9%

row,Structure (SMILES),cytotoxicity at 70.5 h
1,CCn1cc(NC(=O)NCc2ccc3c(c2)OCO3)cn1,-1.53%
2,Cc1cc(C(=O)N2CC[C@@H]3CN(c4ncccn4)CCO[C@@H]3C2)c(C)o1,-12.2%
3,O=C(c1cccnc1N1CCOCC1)N1CCCC(n2cccn2)C1 (stereo not drawn),-5.6%
4,COc1ccc(C)cc1-c1csc(Cn2ccc(=O)[nH]c2=O)n1,2.92%
5,Cn1cc(C(=O)Nc2ccc(CN3CCOCC3)cn2)cn1,-4.82%
6,Cc1cc2cccc(NC(=O)N3CC[C@@H]4CC[C@H](C3)N4C)c2o1,-5.41%
7,CC(C)CCN(C)Cc1ccccc1-c1nc(C(C)C)cc(=O)[nH]1,0.496%
8,CC(CN1CCCC1=O)NC(=O)Nc1cccnc1-n1cccn1 (stereo not drawn),35.4%
9,CC(C)c1ccc(O)c(C(=O)NCc2cc[nH]n2)c1,20.8%
10,O=C1CCCc2nccc(-c3ccccc3)c21,23.5%
11,COc1ccc(N2CCC(N(C)C(C)C(=O)N(C)C)CC2)cc1 (stereo not drawn),15.1%
12,O=C(N[C@@H]1CN(Cc2c[nH]nc2-c2ccccc2)C[C@H]1O)c1cc[nH]n1,-9.21%
13,O=C(CCNc1ncccn1)Nc1cc(C(F)(F)F)c[nH]c1=O,-6.4%
14,CC(C)(C)c1n[nH]c(C2CN(C(=O)c3cc(Cl)c[nH]3)CCO2)n1 (stereo not drawn),-10.3%
15,O=C(NCCn1nc(C2CCNC2)c2cccnc21)C1CC1 (stereo not drawn),-1.28%
16,CS(=O)(=O)c1ccc(NCc2ccccc2)cn1,-2.92%
17,CCc1nc(C2CCCN(c3ncc(Br)cn3)C2)no1 (stereo not drawn),-14.4%
18,CN1CCOC[C@H]1c1nc(C(C)(C)C)c[nH]1,11.4%
19,CS(=O)(=O)N1CC[C@H]2O[C@@H](C(=O)NCc3ccco3)CC[C@H]21,-12%
20,COCc1noc(-c2nn(-c3ccccc3F)c3c2CCC3)n1,-6.39%
21,CNC(=O)NC(=O)C(C)N1CCN(c2ccc(C#N)cc2F)CC1 (stereo not drawn),-12.9%
22,CC(C)N1CCC(C(=O)N2CCc3c(nc(CC4CC4)[nH]c3=O)C2)CC1,-7.62%
23,NC(=O)CN(Cc1ccc(Br)cc1)C(=O)c1ccccn1,-4.46%

row,Structure (SMILES),cytotoxicity at 70.5 h
1,Cc1nn(C)c2ncc(CN3CCCCCC3)cc12,-5.07%
2,NS(=O)(=O)NCc1cc(-c2ccc(C(F)(F)F)cc2)n[nH]1,-5.31%
3,c1ncn(CC2CCCN(Cc3noc(C4CC4)n3)C2)n1 (stereo not drawn),-12.6%
4,Cc1nc(C)n(CC2CN(CCCOc3ccccc3)CCO2)n1 (stereo not drawn),-2.14%
5,Cc1ccc2cc(C(=O)N3CCCN(C)CC3)ccc2n1,-2.19%
6,CS(=O)(=O)NCC1CCCCN1Cc1ccccc1C#N (stereo not drawn),-10.5%
7,Cc1cccc(CN2C[C@@H]3CN(C(=O)C4CC=CC4)C[C@@H]3C2=O)n1,-14.7%
8,COc1ccc(CN(C)CC2(O)CCN(C(=O)c3cccn3C)C2)cc1 (stereo not drawn),36.1%
9,O=C(C1CC1)N1CCC2(COCc3cnc(NCc4ccco4)nc32)C1 (stereo not drawn),-2.45%
10,Cc1cccc(-c2noc([C@@H]3Cc4nc[nH]c4CN3)n2)c1,-3%
11,CCn1nc(C)cc1C(=O)N1C[C@H]2CCC[C@@]2(COc2ccccn2)C1,-7.77%
12,CC(=O)N1CCCN(C(C(=O)O)c2ccccc2OC(F)(F)F)CC1 (stereo not drawn),-7.53%
13,C[C@@H]1CN(c2nc3c(cc2C(N)=O)CCC3)CC[C@@]1(O)C1CCC1,-12.9%
14,CN(C)[C@H]1C[C@@H](Cc2cc(-c3ccc(F)cc3)on2)C1(C)C,-0.292%
15,O=C(c1ccco1)N1CCN2C[C@H](Oc3cncnc3)C[C@H]2C1,12.4%
16,CCCc1n[nH]c(C2CN(CCS(=O)(=O)CC)CCO2)n1 (stereo not drawn),-7.9%
17,CC(C)N1CCC(N(C)c2ccnc(N(C)C)n2)CC1,-2.26%
18,CC(=O)c1ccc(CN2C[C@@H](CN3CCC(O)CC3)[C@@H](CO)C2)cc1,-2.46%
19,CN(Cc1ccco1)Cc1ccccc1CNC(=O)c1cnc[nH]1,13.3%
20,c1ccn(Cc2nnc3n2CCCN(Cc2ccoc2)C3)c1,6.46%
21,O=C(NCc1ccc2c(c1)OCO2)c1ccc(N2CCCCCC2)nc1,2.76%
22,OC1(CNc2ccccc2)CCNCC1,-7.62%
23,CCN1CCOCC2(CCCN(C(=O)c3cnccn3)C2)C1 (stereo not drawn),-14.9%

row,Structure (SMILES),cytotoxicity at 70.5 h
1,Cc1ccnc(OC[C@@]23CCO[C@@H]2CCN(c2ncc(F)cn2)C3)n1,-6.92%
2,CCN1CCCC(c2c(-c3ccccc3)ncn2CC(N)=O)C1 (stereo not drawn),-0.352%
3,Cc1ccccc1CN(CCN(C)C)Cc1ccc(O)c(C(=O)O)c1,-8.19%
4,Cc1ncccc1C(=O)Nc1cccc(OCC(F)F)n1,-8.26%
5,CN(Cc1cccnc1)C1CC2(CCN(c3ncccn3)CC2)C1,-15.1%
6,Cn1cc(C2COC3(CCN(C(=O)Cc4ccccc4)CC3)C2)cn1 (stereo not drawn),-8.09%
7,Cn1ncc2c(NCCOCc3ccccc3)nc(C3CCCC3)nc21,-3.35%
8,O=C(CC[C@@H]1CCCN2CCCC[C@H]12)NCCc1cc(O)ncn1,-11.3%
9,Cc1cc(C)n(-c2ccc(C(=O)NCc3cncn3CC(C)C)cc2)n1,-1.13%
10,CCn1ncnc1CN1CCc2[nH]cnc2C1CCc1ccccc1 (stereo not drawn),-4.41%
11,Cc1cnc(N2CCCOC(CN3CCCCC3)C2)nc1 (stereo not drawn),-5.72%
12,CC(C)(O)c1cn(C[C@H]2C[C@@H]3CCN2C[C@@H]3C(=O)N2CCOCC2)nn1,-1.36%
13,CCc1cnc(C)nc1NCCN1CCOCC1,-0.575%
14,CN(C)C(=O)CNC(=O)c1ccc(Cl)cc1F,45.3%
15,CC(=O)Nc1nc(CN2CCCCC2Cn2cccn2)cs1 (stereo not drawn),6.38%
16,O=C1COC2(CCN(Cc3ccco3)CC2)CN1CCn1cccn1,-6.38%
17,Cc1nnc(CN(C)C2CCN(Cc3nnc(C4CCC4)o3)C2)n1C (stereo not drawn),1.37%
18,COc1nccc(N2CC[C@@H](N3CCCCCC3)[C@H](O)C2)c1C#N,-11.1%
19,O=C(Cc1cc2c(cc1Br)OCCO2)NC1CCS(=O)(=O)C1 (stereo not drawn),7.44%
20,CC(C)CNC(=O)c1[nH]nc(C2CC2)c1Br,-4.78%
21,O=C(CCn1ccc2ncccc2c1=O)N1CCCC1,0.26%
